The record followed here is ChEMBL document CHEMBL3879908, “Pyrrolidinone carboxamide derivatives” (2014).

Usually IC50 stands for the concentration that gives 50% inhibition.

The experiment deals with T1, Chemerin-like receptor 1 (Homo sapiens, UniProt Q99788).
T1 sequence (Q99788 whole entry): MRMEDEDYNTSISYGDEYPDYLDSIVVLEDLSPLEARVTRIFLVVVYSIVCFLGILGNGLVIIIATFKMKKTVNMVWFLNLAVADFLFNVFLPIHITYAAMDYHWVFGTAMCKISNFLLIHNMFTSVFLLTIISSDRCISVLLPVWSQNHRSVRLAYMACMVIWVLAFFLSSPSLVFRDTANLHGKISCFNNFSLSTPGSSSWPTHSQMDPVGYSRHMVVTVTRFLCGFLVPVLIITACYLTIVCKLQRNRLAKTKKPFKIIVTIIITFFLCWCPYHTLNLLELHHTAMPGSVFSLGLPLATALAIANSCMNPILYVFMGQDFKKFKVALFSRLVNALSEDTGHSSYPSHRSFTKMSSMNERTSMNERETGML
The experiment in a line: Displacement of [125I]-chemerin from ChemR23 (unknown origin) transfected in mouse BaF3 cells after 3 hrs by scintillation counting method. In kind it is cell-based. Background: In a radioligand displacement assay an active substance lowers the binding of a labelled ligand.
Compound `Cc1cc(C)n(C2(C(=O)Nc3cc(C(F)(F)F)cc(C(F)(F)F)c3)CC(=O)N(c3c(C)cccc3C)C2)n1` (centres undefined) displayed an IC50 of no more than 30 nM.
In the case of `CCc1cccc(C)c1N1CC(C(=O)Nc2ccc(C(F)(F)F)cc2)CC1=O` (centres undefined), the IC50 was 300 to 6000 nM.
Consider `Cc1cccc(C)c1N1CC(C(=O)Nc2cc(C(F)(F)F)cc(C(F)(F)F)c2)(C2CCCCC2)CC1=O` (centres undefined), for which the IC50 was no more than 30 nM.
`O=C(Nc1cc(C(F)(F)F)cc(C(F)(F)F)c1)C1CC(=O)N(c2ccccc2)C1` (centres undefined) showed an IC50 of 300 to 6000 nM.
With `Cc1cccc(C)c1N1C[C@@](CN(C)C(C)C)(C(=O)Nc2cc(C3CC3)cc(C(F)(F)F)c2)[C@H](C)C1=O` the figure was 30 to 300 nM.
With `Cc1cccc(C)c1N1C[C@@](CN(C)C2CCC2)(C(=O)Nc2cc(OC(C)C)cc(C(F)(F)F)c2)[C@H](C)C1=O` the figure was 30 to 300 nM; with `Cc1cccc(C)c1N1C[C@@](CN2CCC(F)CC2)(C(=O)Nc2cc(C#N)cc(C(F)(F)F)c2)[C@H](C)C1=O`, no more than 30 nM; with `CCN(CC)C[C@@]1(C(=O)Nc2cc(C#N)cc(C(F)(F)F)c2)CN(c2c(C)cccc2C)C(=O)[C@H]1C`, no more than 30 nM.
As for `Cc1cccc(C)c1N1C[C@@](CN2CCC(F)(F)CC2)(C(=O)Nc2cc(C#N)cc(C(F)(F)F)c2)[C@H](C)C1=O`, the IC50 was 30 to 300 nM.
`C/C=C/c1ccccc1N1CC(C(=O)Nc2cc(C(F)(F)F)cc(C(F)(F)F)c2)(C(C)C)CC1=O` (centres undefined) gave an IC50 of 30 to 300 nM.
In turn, `Cc1cccc(C)c1N1CC2(C(=O)Nc3cc(C(F)(F)F)cc(C(F)(F)F)c3)CCCCC2C1=O` (centres undefined) returned an IC50 of 30 to 300 nM.
Compound `Cc1cccc(C)c1N1CC(C(=O)Nc2cc(C(F)(F)F)cc(C(F)(F)F)c2)(C2CCCC2)CC1=O` (centres undefined) yielded an IC50 of no more than 30 nM.
Consider `Cc1cccc(C)c1N1C[C@@](CN2CCC(F)(F)C2)(C(=O)Nc2cc(C#N)cc(C(F)(F)F)c2)[C@H](C)C1=O`, for which the IC50 is no more than 30 nM.
`Cc1cccc(C)c1N1C[C@@](CN(C)C(C)C)(C(=O)Nc2cc(C#N)cc(C(F)(F)F)c2)[C@H](C)C1=O` had an IC50 of no more than 30 nM.
In turn, `C=Cc1ccccc1N1CC(C(=O)Nc2cc(C(F)(F)F)cc(C(F)(F)F)c2)(C(C)C)CC1=O` (centres undefined) returned an IC50 of 30 to 300 nM.
For the compound `Cc1cccc(C)c1N1CC(C(=O)Nc2cc(C(F)(F)F)cc(C(F)(F)F)c2)(C2=CCN(C(=O)OC(C)(C)C)CC2)CC1=O` (centres undefined), the IC50 was no more than 30 nM.
Next, `CCN(C[C@@]1(C(=O)Nc2cc(C(F)(F)F)cc(C(F)(F)F)c2)CN(c2c(C)cccc2C)C(=O)[C@H]1C)C(C)C`: no more than 30 nM.
In the case of `Cc1cccc(CO)c1N1CC(C(=O)Nc2cc(C(F)(F)F)cc(C(F)(F)F)c2)(C(C)C)CC1=O` (centres undefined), the IC50 is 30 to 300 nM.
On to `Cc1cccc(C)c1N1C[C@]2(C(=O)Nc3cc(C(F)(F)F)cc(C(F)(F)F)c3)CC[C@@H]2C1=O`, for which the IC50 is no more than 30 nM.
With `Cc1cccc(C)c1N1C[C@@](CN(C)CCCCF)(C(=O)Nc2cc(C(F)(F)F)cc(C(F)(F)F)c2)[C@H](C)C1=O`, the IC50 was no more than 30 nM.
Regarding `CCc1cccc(C)c1N1CC(C(=O)Nc2cc(C(F)(F)F)cc(C(F)(F)F)c2)CC1=O` (centres undefined), the IC50 is no more than 30 nM.
Next, `Cc1cccc(C)c1N1CC(C(=O)Nc2cc(Cl)cc(C#N)c2)CC1=O` (centres undefined): 300 to 6000 nM; `Cc1cccc(C)c1N1C[C@@](CN2CCC(F)(F)CC2)(C(=O)Nc2cc(OC(C)C)cc(C(F)(F)F)c2)[C@H](C)C1=O`: no more than 30 nM.
For the compound `Cc1cccc(C)c1N1CC(C(=O)Nc2cc(Br)cc(C(F)(F)F)c2)(C(C)C)CC1=O` (centres undefined), the IC50 is no more than 30 nM.
`Cc1cccc(C)c1N1C[C@@](CN(C)CC(C)C)(C(=O)Nc2cc(C(F)F)cc(C(F)(F)F)c2)[C@H](C)C1=O`: the IC50 is no more than 30 nM.
In turn, `Cc1cccc(C)c1N1C[C@@](CN2CCC(F)CC2)(C(=O)Nc2cc(C3CC3)cc(C(F)(F)F)c2)[C@H](C)C1=O` returned an IC50 of 30 to 300 nM.
`Cc1cccc(C)c1N1CC(C(=O)Nc2cc(C(F)(F)F)cc(C(F)(F)F)c2)(N(C)C)CC1=O` (centres undefined): the IC50 is no more than 30 nM.
For `CCc1ccccc1N1CC(C(=O)Nc2cc(C(F)(F)F)cc(C(F)(F)F)c2)CC1=O` (centres undefined), the IC50 was in the range of 30 to 300 nM.
Next, `COC1CCN(C[C@@]2(C(=O)Nc3cc(C#N)cc(C(F)(F)F)c3)CN(c3c(C)cccc3C)C(=O)[C@H]2C)CC1`: 30 to 300 nM; `Cc1cccc(C)c1N1C[C@@](CN(C)C)(C(=O)Nc2cc(C#N)cc(C(F)(F)F)c2)[C@H](C)C1=O`: no more than 30 nM; `Cc1cccc(C)c1N1C[C@@](CN(C)CC(C)C)(C(=O)Nc2cc(OC(C)C)cc(C(F)(F)F)c2)[C@H](C)C1=O`: no more than 30 nM.
Compound `Cc1cccc(C)c1N1C[C@@](CN2CCOC[C@H]2C)(C(=O)Nc2cc(C(F)(F)F)cc(C(F)(F)F)c2)[C@H](C)C1=O` showed an IC50 of 30 to 300 nM.
With `CC[C@@]1(C(=O)Nc2cc(C)cc(C(F)(F)F)c2)CN(c2c(C)cccc2C)C(=O)[C@H]1C` the figure was no more than 30 nM.
As for `CC[C@@]1(C(=O)Nc2cc(C#N)cc(C(F)(F)F)c2)CN(c2c(C)cccc2C)C(=O)[C@H]1C`, the IC50 was no more than 30 nM.
Consider `CC[C@@H]1C(=O)N(c2c(C)cccc2C)C[C@@]1(CC)C(=O)Nc1cc(C(F)(F)F)cc(C(F)(F)F)c1`, for which the IC50 was no more than 30 nM.
On to `Cc1cccc(F)c1N1CC(C(=O)Nc2cccc(Cl)c2)CC1=O` (centres undefined), for which the IC50 lay within 300 to 6000 nM.
In the case of `Cc1cccc(C)c1N1CC(C(=O)Nc2ccc(Cl)c(C(F)(F)F)c2)CC1=O` (centres undefined), the IC50 fell in the range of 300 to 6000 nM.
`CCC(C)(C)C1(C(=O)Nc2cc(C(F)(F)F)cc(C(F)(F)F)c2)CC(=O)N(c2c(C)cccc2C)C1` (centres undefined) returned an IC50 of 30 to 300 nM.
On to `CC(C)C1(C(=O)Nc2cc(C(F)(F)F)cc(C(F)(F)F)c2)CC(=O)N(c2ccccc2Cl)C1` (centres undefined), for which the IC50 fell in the range of 30 to 300 nM.
In the case of `Cc1cccc(C)c1N1CC(CC2CCN(Cc3ccccc3)C2)(C(=O)Nc2cc(C(F)(F)F)cc(C(F)(F)F)c2)CC1=O` (centres undefined), the IC50 is no more than 30 nM.
Take `C=CCc1ccccc1N1CC(C(=O)Nc2cc(C(F)(F)F)cc(C(F)(F)F)c2)(C(C)C)CC1=O` (centres undefined): the IC50 is 30 to 300 nM.
Regarding `CC(C)c1ccccc1N1CC(C(=O)Nc2cc(C(F)(F)F)cc(C(F)(F)F)c2)CC1=O` (centres undefined), the IC50 was 30 to 300 nM.
In turn, `CCN(C)C[C@@]1(C(=O)Nc2cc(C(F)(F)F)cc(C(F)(F)F)c2)CN(c2c(C)cccc2C)C(=O)[C@H]1C` came in with an IC50 of no more than 30 nM.
`Cc1cccc(C)c1N1CC(CC(C)C)(C(=O)Nc2cc(C(F)(F)F)cc(C(F)(F)F)c2)CC1=O` (centres undefined) showed an IC50 of no more than 30 nM.
Next, `CC[C@@H]1C(=O)N(c2c(C)cccc2C)C[C@]1(C)C(=O)Nc1cc(C(F)(F)F)cc(C(F)(F)F)c1`: 300 to 6000 nM.
Compound `Cc1cccc(CCN2CCOCC2)c1N1CC(C(=O)Nc2cc(C(F)(F)F)cc(C(F)(F)F)c2)(C(C)C)CC1=O` (centres undefined) gave an IC50 of 300 to 6000 nM.
With `Cc1cccc(C)c1N1C[C@@](CN(C)CC2CC2)(C(=O)Nc2cc(C(F)(F)F)cc(C(F)(F)F)c2)[C@H](C)C1=O` the figure was no more than 30 nM.
For the compound `Cc1ccccc1N1CC(C(=O)Nc2cc(C3CC3)cc(C(F)(F)F)c2)(C(C)C)CC1=O` (centres undefined), the IC50 lay within 30 to 300 nM.
For `Cc1cccc(C)c1N1C[C@@](CN(C)C)(C(=O)Nc2cc(C3CC3)cc(C(F)(F)F)c2)[C@H](C)C1=O`, the IC50 was 30 to 300 nM.
In the case of `Cc1cccc(C)c1N1CC(C(=O)Nc2cccc(C(F)(F)F)c2)CC1=O` (centres undefined), the IC50 fell in the range of 300 to 6000 nM.
With `Cc1cccc(C)c1N1CC(C(=O)Nc2cc(C(F)(F)F)cc(C(F)(F)F)c2)(C(C)(C)O)CC1=O` (centres undefined), the IC50 was no more than 30 nM.
Compound `CC(C)C1(C(=O)Nc2cc(C(F)(F)F)cc(C(F)(F)F)c2)CC(=O)N(c2ccccc2C2CC2)C1` (centres undefined) gave an IC50 of 30 to 300 nM.
`CCCC[C@@]1(C(=O)Nc2cc(C(F)(F)F)cc(C(F)(F)F)c2)CN(c2c(C)cccc2C)C(=O)[C@H]1C`: the IC50 is no more than 30 nM.
With `CC[C@@]1(C(=O)Nc2cc(C3CC3)cc(C(F)(F)F)c2)CN(c2c(C)cccc2C)C(=O)[C@H]1C` the figure was no more than 30 nM; with `Cc1ccccc1N1CC(C(=O)Nc2cc(C(F)(F)F)cc(C(F)(F)F)c2)(C(C)C)CC1=O` (centres undefined), no more than 30 nM.
Consider `Cc1cccc(C)c1N1C[C@@](C)(C(=O)Nc2cc(Cl)cc(Cl)c2)[C@H](C)C1=O`, for which the IC50 was no more than 30 nM.
In turn, `Cc1cccc(CCN2CCCC2)c1N1CC(C(=O)Nc2cc(C(F)(F)F)cc(C(F)(F)F)c2)(C(C)C)CC1=O` (centres undefined) displayed an IC50 of 300 to 6000 nM.
`CCC1(C(=O)Nc2cccc(C(F)(F)F)c2)CC(=O)N(c2c(C)cccc2C)C1` (centres undefined) displayed an IC50 of 300 to 6000 nM.
With `Cc1cccc(C)c1N1CC2(C(=O)Nc3cc(C(F)(F)F)cc(C(F)(F)F)c3)CC(N3CCCC3)CC2C1=O` (centres undefined) the figure was 30 to 300 nM.
Next, `Cc1cccc(C)c1N1CC(C(=O)Nc2cc(N3CCCC3)cc(C(F)(F)F)c2)CC1=O` (centres undefined): 30 to 300 nM; `Cc1cccc(F)c1N1CC(C(=O)Nc2cc(C(F)(F)F)cc(C(F)(F)F)c2)(C(C)C)CC1=O` (centres undefined): 30 to 300 nM.
For `Cc1cccc(C)c1N1CC2(C(=O)Nc3cc(C(F)(F)F)cc(C(F)(F)F)c3)CC=CCC2C1=O` (centres undefined), the IC50 is no more than 30 nM.
As for `Cc1cccc(C)c1N1C[C@@](CN(C)CC(F)(F)F)(C(=O)Nc2cc(C(F)(F)F)cc(C(F)(F)F)c2)[C@H](C)C1=O`, the IC50 is no more than 30 nM.
For the compound `Cc1cccc(C)c1N1CC(C(=O)Nc2cc(C(F)(F)F)cc(C(F)(F)F)c2)(C2CCC2)CC1=O` (centres undefined), the IC50 is no more than 30 nM.
As for `Cc1cccc(N2CC(C(=O)Nc3cc(C(F)(F)F)cc(C(F)(F)F)c3)CC2=O)c1C` (centres undefined), the IC50 lay in the range of 30 to 300 nM.
Next, `CCOc1cc(NC(=O)[C@]2(CC)CN(c3c(C)cccc3C)C(=O)[C@H]2C)cc(C(F)(F)F)c1`: 30 to 300 nM; `Cc1cccc(C)c1N1CC(C(=O)Nc2cc(C(F)(F)F)cc(C(F)(F)F)c2)(C2=CCS(=O)(=O)CC2)CC1=O` (centres undefined): 30 to 300 nM.
For the compound `Cc1cccc(C)c1N1CC(C(=O)Nc2cc(C(F)(F)F)cc(C(F)(F)F)c2)(C2=CCN(C)CC2)CC1=O` (centres undefined), the IC50 is 30 to 300 nM.
On to `Cc1cccc(C)c1N1CC(C(=O)Nc2cccc(Cl)c2)CC1=O` (centres undefined), for which the IC50 fell in the range of 300 to 6000 nM.
